pIC50: −log10 of the molar value. Read-outs that look alike come from different tables or passages of the source. Bounds are passed on as bounds.

The subject of experiment [1] is HepG2 cells. The experiment can be described thus: Test Example 2: inhibition of apolipoprotein B secretion from HepG2 cells, ELISA (also used for metabolites in Test Example 8). The conditions noted are these: Homo sapiens. The class given is cell-based. A digest of the protocol: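 HepG2 cells cultured 24 h, then exposed 24 h to compounds or metabolites in medium with 0.5% DMSO. Secreted apo B in supernatant quantified by sandwich ELISA (HRP, ABTS, 405 nm) against purified human apo B standard; % inhibition vs DMSO group, IC50 derived.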
(In general: An ELISA detects its analyte on a solid surface through an enzyme-linked reagent.)

Experiment [2] concerns the target T1, Microsomal triglyceride transfer protein (MTP) from bovine liver (Bos taurus, UniProt P55156).
T1 construct: from tissue; host or cells: bovine liver
T1 sequence (P55156 12-887): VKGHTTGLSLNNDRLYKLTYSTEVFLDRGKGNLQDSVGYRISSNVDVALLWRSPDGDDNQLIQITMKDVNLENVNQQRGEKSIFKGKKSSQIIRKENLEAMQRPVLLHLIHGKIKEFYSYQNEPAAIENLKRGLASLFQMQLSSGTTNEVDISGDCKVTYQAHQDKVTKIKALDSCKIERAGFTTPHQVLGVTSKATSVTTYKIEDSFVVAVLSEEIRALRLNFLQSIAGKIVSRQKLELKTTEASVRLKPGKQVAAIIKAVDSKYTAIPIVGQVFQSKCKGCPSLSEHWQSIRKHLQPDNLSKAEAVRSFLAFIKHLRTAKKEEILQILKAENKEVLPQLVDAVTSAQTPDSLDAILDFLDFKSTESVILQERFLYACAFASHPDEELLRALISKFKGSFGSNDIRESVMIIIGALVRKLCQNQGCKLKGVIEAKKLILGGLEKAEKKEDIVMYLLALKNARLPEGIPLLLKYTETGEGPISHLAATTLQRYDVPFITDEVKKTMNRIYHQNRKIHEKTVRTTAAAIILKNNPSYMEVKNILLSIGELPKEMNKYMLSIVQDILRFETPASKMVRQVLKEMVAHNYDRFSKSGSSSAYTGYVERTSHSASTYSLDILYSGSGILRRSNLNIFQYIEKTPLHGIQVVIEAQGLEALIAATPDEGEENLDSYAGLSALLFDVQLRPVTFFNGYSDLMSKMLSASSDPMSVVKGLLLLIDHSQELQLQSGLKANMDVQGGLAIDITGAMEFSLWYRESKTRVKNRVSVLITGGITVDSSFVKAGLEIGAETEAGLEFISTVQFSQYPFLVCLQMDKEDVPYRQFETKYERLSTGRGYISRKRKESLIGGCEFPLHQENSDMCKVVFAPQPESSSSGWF
T1 sequence (P05307 21-510 partner): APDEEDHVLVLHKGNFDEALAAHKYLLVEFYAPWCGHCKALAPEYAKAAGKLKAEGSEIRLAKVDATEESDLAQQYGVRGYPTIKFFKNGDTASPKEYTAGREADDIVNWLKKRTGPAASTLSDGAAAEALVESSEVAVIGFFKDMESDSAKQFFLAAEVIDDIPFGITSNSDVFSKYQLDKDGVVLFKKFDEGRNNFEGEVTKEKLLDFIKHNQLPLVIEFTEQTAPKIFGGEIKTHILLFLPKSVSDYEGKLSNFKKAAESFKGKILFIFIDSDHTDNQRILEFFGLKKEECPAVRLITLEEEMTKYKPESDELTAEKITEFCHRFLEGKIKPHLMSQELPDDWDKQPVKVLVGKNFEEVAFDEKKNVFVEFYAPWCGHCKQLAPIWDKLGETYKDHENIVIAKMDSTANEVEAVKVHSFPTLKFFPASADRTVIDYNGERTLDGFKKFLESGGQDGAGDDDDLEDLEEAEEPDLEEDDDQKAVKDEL
Kind of experiment: Test Example 1: inhibition of interliposomal triglyceride (TG) transfer activity by MTP (also used for metabolites in Test Example 8). The class given is biochemical. How it is done: Inhibition of Interliposomal Triglyceride (TG) Transfer Activity by MTP
Microsomal triglyceride transfer protein (MTP) from bovine liver was partially purified in such a way described below. A buffer (50 mM Tris, 250 mM sucrose, 1 mM EDTA, 0.02% NaN3 (pH 7.4)) for making a homogenate preparation was added to bovine liver, and the mixture was homogenated under ice-cooling, then centrifuged at 10,000×g (4° C., 30 minutes). The supernatant was adjusted to pH 5.1 with hydrochloric acid, and stirred for 30 minutes. The solution was further centrifuged at 10,000×g (4° C., 30 minutes), and 1 mM Tris buffer was added to the precipitated residue, and the mixture was adjusted to pH 8.6 with sodium hydroxide. After addition of 2.7M ammonium sulfate solution, the mixture was stirred for 30 minutes, then centrifuged at 10,000×g (4° C., 40 minutes). The resulting supernatant was served as a crude extraction fraction of MTP and stored at −80° C. under freezing. In its practical use, the crude extraction fraction of MTP was purified by column chromatography on diethylaminoethyl (DEAE) Sepharose using FPLC (Fast Performance Liquid Chromatography) system, and the purified MTP was used for the test.
Small unilamellar-vesicle (SUV) liposome (donor, 0.25 mol % triolein, 5 mol % cardiolipin) labeled with ^14C-triolein and non-labeled SUV liposome (acceptor, 0.25 mol % triolein) were prepared. A fixed amount of donor and acceptor, and MTP were mixed with a sample dissolved in DMSO or with DMSO. The mixture was incubated in a 15 mM Tris hydrochloride buffer (pH 7.4) containing 40 mM sodium chloride, 1 mM EDTA (ethylenediaminetetraacetic acid), 0.02% NaN3 and 0.5% bovine serum albumin at 37° C. for one hour. After completion of the incubation, a suspension of DEAE cellulose (50% v/v) in 15 mM Tris hydrochloride buffer (pH 7.4) was added to the above solution, and the mixture was centrifuged to separate the donor and the acceptor. The radioactivity in the acceptor was measured by liquid scintillation counter. The value obtained by subtracting the radioactivity in the blank from the amount of radioactivity in the acceptor of a DMSO group was determined as MTP-mediated TG transfer activity, and it was compared with the value obtained by subtracting the radioactivity in the blank from the radioactivity in a sample group. The blank was prepared by adding 15 mM Tris-HCl buffer (pH 7.4) in place of MTP. Inhibition rate (%) was calculated from the values obtained according to the following equation.
Inhibition rate (%)=100×(1 minus ((radioactivity of sample group minus radioactivity of blank group)/(radioactivity of DMSO group minus radioactivity of blank group))).
50% Inhibition rate (IC50) was determined on the basis of the above equation.
Inhibitory Activity on MTP and apo B Secretion Inhibition by Metabolites
In a similar manner to Test Examples 1 and 2, the activity of metabolites was assayed.

The mark [3] stands for this setting: main metabolites of the compounds (Test Example 8), read-out: Inhibition of apo B secretion IC50.
Setting [4] is: main metabolites of the compounds (Test Example 8), read-out: MTP inhibition IC50.
Where [5] appears, read: 24 hours, apo B in supernatant by ELISA, read-out: Test Example 2 Inhibition of apo B secretion IC50.
Where [6] appears, read: MTP-mediated 14C-triolein transfer between liposomes, 37° C., one hour, read-out: Test Example 1 MTP inhibition IC50.

In general, pIC50 refers to the IC50 on a negative log10 scale, so that one unit is a factor of ten. As for `CCNC(=O)C(CO)(C(=O)NCC)c1ccccc1`, the negative-log IC50 (pIC50) in experiment [1] (setting [3]) is < 5.00; in experiment [2] (setting [4]) it was < 6.00.
The matching figures for `O=C(O)Cc1ccc(NC(=O)c2ccccc2-c2ccc(C(F)(F)F)cc2)cc1`: < 5.00 and < 6.00.
The corresponding values for `CCCNC(=O)C(CO)(C(=O)NCCC)c1ccccc1` are < 5.00 and < 6.00.
For the compound `CN(C)C(=O)c1cc(CC(=O)O)ccc1NC(=O)c1ccccc1-c1ccc(C(F)(F)F)cc1`, the pIC50 in experiment [1] (setting [3]) and in experiment [2] (setting [4]) was < 5.00 in each case.
Turning to `CCOC(=O)C(CO)(C(=O)OCC)c1ccccc1`, the pIC50 was < 5.00 in experiment [1] (setting [3]) and < 6.00 in experiment [2] (setting [4]).
The corresponding values for `COc1cc(CC(=O)O)ccc1NC(=O)c1ccccc1-c1ccc(C(F)(F)F)cc1` are < 5.00 and < 6.00.
Take `CCOC(=O)C(COC(=O)Cc1ccc(N(C)C(=O)c2ccccc2-c2ccc(C(F)(F)F)cc2)cc1)(C(=O)OCC)c1ccccc1` [Example 1-4, 2-(2-{4-[Methyl-(4′-trifluoromethylbiphenyl-2-carbonyl)amino]phenyl}acetoxymethyl)-2-phenylmalonic acid diethyl ester]: the values for the pIC50 in experiment [1] (setting [5]) and in experiment [2] (setting [6]) were 6.72 and 8.47, respectively.
As to `CC(C(=O)OCC1(C(=O)NCC(F)(F)F)c2ccccc2-c2ccccc21)c1ccc(NC(=O)c2ccccc2-c2ccc(C(F)(F)F)cc2)cc1` (centres unmarked) [Example 1-7], the pIC50 in experiment [1] (setting [5]) is 6.48; in experiment [2] (setting [6]), 8.12.
Turning to `O=C(Cc1ccc(NC(=O)c2ccccc2-c2ccc(C(F)(F)F)cc2)cc1)OCC(C(=O)NCC(F)(F)F)c1ccccc1` (centres unmarked) [Example 1-8], the negative-log IC50 (pIC50) in experiment [1] (setting [5]) is 6.14; in experiment [2] (setting [6]) it was 7.43.
The matching figures for `CCOC(=O)C(COC(=O)Cc1ccc(NC(=O)c2ccccc2-c2ccc(C(F)(F)F)cc2)cc1)(C(=O)OCC)c1ccccc1` [Example 1-9]: 8.49 and 8.23.
Take `CC(C)OC(=O)C(COC(=O)Cc1ccc(NC(=O)c2ccccc2-c2ccc(C(F)(F)F)cc2)cc1)(C(=O)OC(C)C)c1ccccc1` [Example 1-11]: the pIC50 in experiment [1] (setting [5]) is 7.66; in experiment [2] (setting [6]) it was 7.49.
The corresponding values for `CCOC(=O)C(COC(=O)Cc1ccc(NC(=O)c2ccccc2-c2ccc(C(F)(F)F)cc2)cc1)(C(=O)OCC)C1CCCC1` [Example 1-14] are 7.26 and 7.09.
For the compound `O=C(Cc1ccc(NC(=O)c2ccccc2-c2ccc(C(F)(F)F)cc2)cc1)OCC(C(=O)OC1CCCCC1)(C(=O)OC1CCCCC1)c1ccccc1` [Example 1-22], the pIC50 in experiment [1] (setting [5]) is 6.75; in experiment [2] (setting [6]), 7.18.
The matching figures for `O=C(Cc1ccc(NC(=O)c2ccccc2-c2ccc(C(F)(F)F)cc2)cc1)OCC(C(=O)NC1CCCCC1)(C(=O)NC1CCCCC1)c1ccccc1` [Example 1-23]: 7.20 and 7.27.
As for `CC(C)NC(=O)C(COC(=O)Cc1ccc(NC(=O)c2ccccc2-c2ccc(C(F)(F)F)cc2)cc1)(C(=O)NC(C)C)c1ccccc1` [Example 1-25], the pIC50 was 8.08 in experiment [1] (setting [5]) and 8.30 in experiment [2] (setting [6]).
The corresponding values for `CCOC(=O)C(COC(=O)Cc1ccc(NC(=O)c2ccccc2-c2ccc(C(F)(F)F)cc2)cc1)(Cc1ccccc1)C(=O)OCC` [Example 1-26] are 6.21 and 6.20.
On to `CCOC(=O)C(COC(=O)Cc1ccc(NC(=O)c2ccccc2-c2ccc(C(F)(F)F)cc2)cc1C)(C(=O)OCC)c1ccccc1` [Example 1-27], for which the negative logarithm of the IC50 (pIC50) in experiment [1] (setting [5]) is 7.59; in experiment [2] (setting [6]), 8.15.
As to `O=C(Cc1ccc(OC(=O)c2ccccc2-c2ccc(C(F)(F)F)cc2)cc1)OCC(C(=O)NCC(F)(F)F)(C(=O)NCC(F)(F)F)c1ccccc1` [Example 1-28], the pIC50 is 6.19 in experiment [1] (setting [5]) and 7.46 in experiment [2] (setting [6]).
In the case of `CCOC(=O)C(COC(=O)Cc1ccc(NC(=O)c2ccccc2-c2ccc(C(F)(F)F)cc2)cc1)(C(=O)OCC)C1CCCCC1` [Example 1-31], the pIC50 was 7.21 in experiment [1] (setting [5]) and 7.07 in experiment [2] (setting [6]).
Take `O=C(Cc1ccc(NC(=O)c2ccccc2-c2ccccc2)cc1)OCC(C(=O)NCC(F)(F)F)(C(=O)NCC(F)(F)F)c1ccccc1` [Example 1-32]: the pIC50 in experiment [1] (setting [5]) is 6.14; in experiment [2] (setting [6]), 8.07.
As for `CCOC(=O)C(COC(=O)Cc1ccc(NC(=O)c2ccccc2-c2ccc(C(F)(F)F)cc2)cc1C(F)(F)F)(C(=O)OCC)c1ccccc1` [Example 1-34], the pIC50 in experiment [1] (setting [5]) is 7.00; in experiment [2] (setting [6]), 7.64.
The corresponding values for `CNC(=O)C(COC(=O)Cc1ccc(NC(=O)c2ccccc2-c2ccc(C(F)(F)F)cc2)cc1)(C(=O)NC)c1ccccc1` [Example 1-36] are 6.82 and 8.70.
For the compound `CCOC(=O)C(COC(=O)Cc1ccc(NC(=O)c2ccccc2-c2ccc(C(F)(F)F)cc2)cc1)(C(=O)OCC)c1ccccn1` [Example 1-37], the pIC50 in experiment [1] (setting [5]) was 7.33; in experiment [2] (setting [6]), 8.46.
With `CCOC(=O)C(COC(=O)Cc1ccc(NC(=O)c2ccccc2-c2ccc(C(F)(F)F)cc2)c(NC(=O)OC)c1)(C(=O)OCC)c1ccccc1` [Example 9-22], in experiment [1] (setting [5]), the negative-log IC50 (pIC50) is 9.02.
For the compound `CCOC(=O)C(COC(=O)Cc1ccc(NC(=O)c2ccccc2-c2ccc(C(F)(F)F)cc2)c(-c2nc(C)cs2)c1)(C(=O)OCC)c1ccccc1` [Example 9-23], the pIC50 in experiment [1] (setting [5]) is 8.06.
On the same count and under the same terms, then `CCOC(=O)C(COC(=O)Cc1ccc(NC(=O)c2ccccc2-c2ccc(C(F)(F)F)cc2)c(-c2ccccc2)c1)(C(=O)OCC)c1ccccc1` [Example 9-24], with 8.10.
Still for that read-out and setting: to `CCOC(=O)C(COC(=O)Cc1ccc(NC(=O)c2ccccc2-c2ccc(C(F)(F)F)cc2)c(C(=O)N(C)OC)c1)(C(=O)OCC)c1ccccc1` [Example 9-27] belongs 9.09.
